Reference: PubChem BioAssay (NCI)
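A five-concentration, 48-hour dose response in 96-well plates underlies each endpoint, interpolated linearly between surrounding concentrations. GI50: concentration for 50% inhibition of growth. TGI marks complete inhibition of growth.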

Key:
Experiment in all cases: DTP human tumour cell line panel, 48 h
A498 renal = tested on: A498 renal
CAKI-1 renal = tested on: CAKI-1 renal
HCT-116 colon = tested on: HCT-116 colon
HCT-15 colon = tested on: HCT-15 colon
HL-60(TB) leukemia = tested on: HL-60(TB) leukemia
K-562 leukemia = tested on: K-562 leukemia
MCF7 breast = tested on: MCF7 breast
SF-268 CNS = tested on: SF-268 CNS
SN12C renal = tested on: SN12C renal
SR leukemia = tested on: SR leukemia

C=C(C)[C@@H]1CC[C@]2(CN)CC[C@]3(C)[C@H](CC[C@@H]4[C@@]5(C)CCC(N)[C@@](C)(CO)[C@@H]5CC[C@]43C)[C@@H]12 (stereo not given in full)
GI50 (A498 renal): 1.44 µM | TGI (A498 renal): 2.79 µM | GI50 (CAKI-1 renal): 1.76 µM | TGI (CAKI-1 renal): 3.2 µM | GI50 (HCT-116 colon): 1.61 µM | TGI (HCT-116 colon): 3.05 µM | GI50 (HCT-15 colon): 1.65 µM | TGI (HCT-15 colon): 3.24 µM | GI50 (HL-60(TB) leukemia): 1.29 µM | TGI (HL-60(TB) leukemia): 2.97 µM | GI50 (K-562 leukemia): 0.325 µM | TGI (K-562 leukemia): 1.06 µM | GI50 (MCF7 breast): 1.53 µM | TGI (MCF7 breast): 3.2 µM | GI50 (SF-268 CNS): 1.75 µM | TGI (SF-268 CNS): 3.45 µM | GI50 (SN12C renal): 1.74 µM | TGI (SN12C renal): 3.24 µM | GI50 (SR leukemia): 1.53 µM | TGI (SR leukemia): 3.63 µM

CCCC(=O)Nc1c(I)cc(I)c(CC(CC)C(=O)O)c1I (stereo not given)
GI50 (A498 renal): > 100 µM | TGI (A498 renal): > 100 µM | GI50 (CAKI-1 renal): > 100 µM | TGI (CAKI-1 renal): > 100 µM | GI50 (HCT-116 colon): > 100 µM | TGI (HCT-116 colon): > 100 µM | GI50 (HCT-15 colon): > 100 µM | TGI (HCT-15 colon): > 100 µM | GI50 (HL-60(TB) leukemia): > 100 µM | TGI (HL-60(TB) leukemia): > 100 µM | GI50 (K-562 leukemia): > 100 µM | TGI (K-562 leukemia): > 100 µM | GI50 (MCF7 breast): > 100 µM | TGI (MCF7 breast): > 100 µM | GI50 (SF-268 CNS): > 100 µM | TGI (SF-268 CNS): > 100 µM | GI50 (SN12C renal): > 100 µM | TGI (SN12C renal): > 100 µM | GI50 (SR leukemia): > 100 µM | TGI (SR leukemia): > 100 µM
